The source of these data is patent US20180332881A1, “PRETERM INFANT FORMULA […] AND USES THEREOF” (Mead Johnson Nutrition Company, priority 2017, published 2018).

The assay relates to oligodendrocyte precursor cells (OPCs). Put plainly: Differentiation of purified oligodendrocyte precursor cells (OPCs) into mature oligodendric cells (MBP / PDGFRα immunostaining). It counts as cell-based, rat. As to conditions: 48 hours. Here is the method: The OPCs were purified from P7 rat brain cortices. Rodent brain cortices were diced and dissociated with papain at 37° C. After trituration, […] were resuspended in a panning buffer and incubated at room temperature sequentially on the three immunopanning dishes: Ran-2 and GalC were used for negative selection before positive selection with 04. OPCs were released from the panning dish using 0.05% Trypsin. OPCs were seeded onto PPL-coated coverslips at 200,000 per 25 mm circle coverslip in a chemically defined culture medium with PDGFa overnight.
Sodium Butyrate (NaB) was dissolved in sterile water and added into culture medium the next day to reach desire concentration. OPC coverslips were placed into 6-well dishes, 1 ml of NaB-containing culture medium without PDGFα was added to each well. Cells were cultured for 48 hours before fixation and immunostaining. PDGFRα antibody identifies OPCs and MBP (myelin basic protein) antibody labels differentiated oligodendrocytes. Percentage of MBP-positive cells out of all PDGFRα- and MBP-positives cells were quantified.
Examining a dose response for sodium butyrate on purified oligodendroglial cultures. Sodium butyrate was added to purified oligodendroglial cultures and cells were analyzed after 48 hours of treatment for effects on survival, proliferation and differentiation. Oligodendrocyte precursor cells were immunostained with PDGFRα shown in green, oligodendrocytes were immunostained with MBP in red, cell nuclei were labeled with DAPI in blue. Percentage of MBP-positive oligodendrocytes among all oligodendroglial cells was quantified at various concentrations of sodium butyrate. The asterisks represent significance based on Students t-test with the respective controls (*p<0.05, **p<0.01)

On to `CCCC(=O)[O-].[Na+]` [sodium butyrate, Sodium Butyrate], for which the “effect to promote OPC to differentiate into mature oligodendric cells (dose response)” value (50 nM to 250 μM) is listed as “dose-dependent manner”. Besides, for the setting “250 μM sodium butyrate”, the “number of oligodendric cells from OPC compared to the control (MBP immunohistochemistry, FIG. 7)” value is “statistically significant increase”. For the same compound, for the setting “250 μM sodium butyrate, OPCs from P7 rat brain cortices”, the “fold increase in the numbers of differentiated and matured oligodendric cells as compared to the control” value is 2.6 fold. Besides, the “increase in Oligo cells (percentage of MBP-positive cells) as compared to the control” value (each of the concentrations tested (50 nM, 500 nM, 5 μM, 50 μM, 250 μM)) is “statistically significant increase”.
